Assays:
RSV-A Memphis-37b = assay: RSV human challenge study: viral load in nasal wash by quantitative culture; format: in vivo
Protocol: Subjects were screened outside the RSV season for eligibility, including measurement of RSV-A Memphis-37b-specific neutralizing antibody titer, ≤90 days before virus challenge. Eligible subjects were admitted to the quarantine unit on day −2 or day −1 and were inoculated intranasally on day 0 with the challenge virus, RSV-A Memphis-37b (4 log10 PFU/ml, given as one 0.4-ml installation per naris), as previously described ([26]). Nasal wash sampling every 12 h for confirmation of RSV infection by qualitative integrated cycler PCR ([12], [19]) began on the morning of day 2. Treatment began 12 h (±1 h) after collection of a nasal wash sample confirming RSV infection or on the evening of day 5 if RSV infection remained unconfirmed by the morning of day 5.
The study comprised two consecutive cohorts. […] Subjects were discharged on day 12 if nasopharyngeal swab samples tested negative by RSV rapid antigen assay (QuickVue RSV test; Quidel, San Diego, CA, USA). If such tests were positive or if a subject remained symptomatic, quarantine was extended to allow further observation. All subjects were evaluated on day 28 (±3 days).
Twice-daily collection of nasal wash samples allowed measurement of viral load via RT-qPCR and quantitative culture. RT-qPCR results were reported as PFUe/ml when the standard curve included in each assay contained a known infectious amount (PFU) of RSV, as described previously ([30]). Subjects reported the occurrence and severity of symptoms three times daily using a 10-item subject symptom diary card as previously reported ([12]) (see Supplemental Methods). Throughout the quarantine period, used tissues were collected and weighed daily, and total nasal mucus weight was recorded. PK assessments were based on venous blood samples. Safety assessments included measurement of vital signs, standard 12-lead ECG recordings, spirometry, a complete physical examination, and a respiratory-directed physical examination. AEs were monitored daily, coded according to the Medical Dictionary for Regulatory Activities Version 20.0, and graded according to the National Cancer Institute Common Terminology Criteria for Adverse Events Version 4.0 (see Supplemental Methods for further details).
The primary efficacy endpoint was AUC for RSV viral load, as measured by RT-qPCR, in nasal wash samples taken twice daily from just before the first dose until discharge (day 12). Viral load data were provided as log10 PFUe/ml; AUC (log10 PFUe/ml · h) was calculated using the trapezoid rule. Secondary efficacy endpoints related to viral load were AUC of RSV viral load, as assessed by quantitative culture, and the following measures, which were each assessed using both RT-qPCR and quantitative culture: peak viral load, time to peak viral load, and time to <1 log10 (for RT-qPCR) or undetectable (for quantitative culture) viral load (considered to occur at the first confirmed undetectable assessment after which no further virus was detected). Secondary efficacy endpoints related to clinical symptoms included AUC total symptom score; peak total symptom score; time to peak total symptom score; and the total weight of nasal mucus produced. Other secondary outcomes were safety, PK, and sequence detection of viral variants (see Supplemental Methods).
The primary efficacy analysis population (the ITT-I analysis set) comprised all randomized subjects who received challenge virus and at least one dose of study drug and met the criterion for laboratory-confirmed RSV infection (presence of detectable RSV). Sensitivity analyses were based on a subset of the ITT-I population who had first detectable RSV infection prior to study drug administration (the ITT-A analysis set) and a fixed time period of 6.5 days (comprising data for all subjects for 6.5 days of evaluation after the first dose, regardless of the staggered commencement of dosing). […]

[1] = tested on: RSV-A (panel of 10 clinical strains); assay: In vitro susceptibility of RSV by plaque assay, RSV-A; format: cell-based; conditions: human respiratory syncytial virus
Protocol: Previous RSV challenge studies achieved antiviral efficacy with peripheral blood trough exposure levels over 3× the protein binding-adjusted in vitro EC90 ([12]). Based on the phase 1 PK data, this level of exposure was predicted to be achieved on or after the first dose in the majority of subjects with a 200-mg dose and to be met or exceeded on or after the first dose in all subjects with a 350-mg dose. The in vitro EC90 was determined using a panel of clinical isolates of RSV (Table S7).
EC50 range (nM) EC90 range (nM)
EC50 and EC 90 were determined by plaque assay.
EC50, 50% effective concentration; EC90, 90% effective concentration; RSV, respiratory

[2] = 200 mg, ITT-I, fixed time period of 6.5 days
[3] = 350 mg, ITT-A, fixed time period of 6.5 days
[4] = 350 mg, ITT-I, fixed time period of 6.5 days

NCc1ccc2c(c1)nc(CN1C(=O)C3(CC3)c3ccc(F)cc31)n2CCCC(F)(F)F [RV521]
AUC of viral load (quantitative culture), mean (SE) (RSV-A Memphis-37b; 200 mg, ITT-A): 53.89 (15.47) hours x log10 PFU/mL | AUC of viral load (quantitative culture), reduction in mean vs placebo (RSV-A Memphis-37b; 200 mg, ITT-A): 71.47% | Peak viral load (quantitative culture), mean (SE) (RSV-A Memphis-37b; 200 mg, ITT-A): 1.82 (0.41) log10 PFU/mL | Time to peak viral load (quantitative culture), mean (SE) (RSV-A Memphis-37b; 200 mg, ITT-A): 3.53 (0.84) days | Time to undetectable viral load (quantitative culture), median (Q1, Q3) (RSV-A Memphis-37b; 200 mg, ITT-A): 3 (2, 3.5) days | AUC of viral load (quantitative culture), mean (SE) (RSV-A Memphis-37b; 200 mg, ITT-I): 50.98 (14.89) log10 PFU/ml · h | AUC of viral load (quantitative culture), reduction in mean vs that of placebo (RSV-A Memphis-37b; 200 mg, ITT-I): 68.60% | Peak viral load (quantitative culture), mean (SE) (RSV-A Memphis-37b; 200 mg, ITT-I): 1.72 (0.40) log10 PFU/ml | Time to peak viral load (quantitative culture), mean (SE) (RSV-A Memphis-37b; 200 mg, ITT-I): 3.69 (0.81) days | Time to undetectable viral load (quantitative culture), median (Q1, Q3) (RSV-A Memphis-37b; 200 mg, ITT-I): 3.0 (2.0, 3.5) (n = 11) days | Mean viral load at time of peak viral load in placebo arm (day 2; quantitative culture), mean (SE) (RSV-A Memphis-37b; 200 mg, ITT-I): 0.88 (0.30) log10 PFU/ml | AUC of viral load (quantitative culture), mean (SE) (RSV-A Memphis-37b; [2]): 50.98 (14.89) log10 PFU/mL x hours | AUC of viral load (quantitative culture), reduction in mean vs placebo (RSV-A Memphis-37b; [2]): 68.60% | AUC of viral load (quantitative culture), mean (SE) (RSV-A Memphis-37b; 350 mg, ITT-A): 43.76 (14.73) hours x log10 PFU/mL | AUC of viral load (quantitative culture), reduction in mean vs placebo (RSV-A Memphis-37b; 350 mg, ITT-A): 76.83% | Peak viral load (quantitative culture), mean (SE) (RSV-A Memphis-37b; 350 mg, ITT-A): 1.81 (0.44) log10 PFU/mL | Time to peak viral load (quantitative culture), mean (SE) (RSV-A Memphis-37b; 350 mg, ITT-A): 3.47 (0.87) days | Time to undetectable viral load (quantitative culture), median (Q1, Q3) (RSV-A Memphis-37b; 350 mg, ITT-A): 2.5 (2, 2.5) days | AUC of viral load (quantitative culture), mean (SE) (RSV-A Memphis-37b; [3]): 43.76 (14.73) log10 PFU/mL x hours | AUC of viral load (quantitative culture), reduction in mean vs placebo (RSV-A Memphis-37b; [3]): 76.83% | AUC of viral load (quantitative culture), mean (SE) (RSV-A Memphis-37b; 350 mg, ITT-I): 38.29 (13.36) log10 PFU/ml · h | AUC of viral load (quantitative culture), reduction in mean vs that of placebo (RSV-A Memphis-37b; 350 mg, ITT-I): 76.42% | Peak viral load (quantitative culture), mean (SE) (RSV-A Memphis-37b; 350 mg, ITT-I): 1.58 (0.41) log10 PFU/ml | Time to peak viral load (quantitative culture), mean (SE) (RSV-A Memphis-37b; 350 mg, ITT-I): 3.85 (0.80) days | Time to undetectable viral load (quantitative culture), median (Q1, Q3) (RSV-A Memphis-37b; 350 mg, ITT-I): 2.5 (2.0, 2.5) (n = 9) days | Mean viral load at time of peak viral load in placebo arm (day 2; quantitative culture), mean (SE) (RSV-A Memphis-37b; 350 mg, ITT-I): 0.71 (0.32) log10 PFU/ml | AUC of viral load (quantitative culture), mean (SE) (RSV-A Memphis-37b; [4]): 38.29 (13.36) log10 PFU/mL x hours | AUC of viral load (quantitative culture), reduction in mean vs placebo (RSV-A Memphis-37b; [4]): 76.42% | EC50 ([1]; read-out: EC50 range): 0.3 to 1 nM | EC90 ([1]; read-out: EC90 range): 2.5 to 5.6 nM

From paper PMC6985722 (Antimicrobial Agents and Chemotherapy, 2020)
